Source: patent publication US20260034063A1 (Opella Healthcare Group SAS, priority 2023, published 2026)

Tests used:
[1] = test system: Bacteria; Fungus and yeast; test: Preservative system efficacy test (PET), summary statements; assay type: cell-based; conditions: for preservative system efficacy test (PET) results: in fexofenadine suspension with EDTA, Ph. Eur and USP criteria
Protocol: (§1) To generate the formulations, the parabens of the existing formulations were replaced with the tested putative paraben replacement. The formulation stayed otherwise the same. As such, all of the preservatives were tested in combination with EDTA.
(§2) Further studies to test use of potassium sorbate for efficacy as an antimicrobial preservative were carried out in the formula with potassium sorbate in order to confirm the minimum concentration of use and definition of the specification, furthering the American and European monographs, in order to meet the different regulatory requirements of the countries in which this new formula will be submitted. The stability studies were conducted for a period of 36 months.

[2] = Fraction of fexofenadine in zwitterion form at suspension pH; assay type: physicochemical; conditions: pH between 5.8 and 7.0
Description: The conversion of anhydrous form to the zwitterion shape is controlled by the pH of the suspension, which is monitored throughout the manufacture of the product, and controlled by the addition of monobasic sodium phosphate buffers and dibasic sodium phosphate.

[3] = test system: Bacteria; Fungus and yeast; test: Preservative efficacy test, criteria of the European pharmacopoeia (Ph. Eur 5.1.3); assay type: cell-based
Protocol: as §1, §2

[4] = test system: Bacteria; Fungus and yeast; test: Preservative efficacy test, criteria of the US Pharmacopoeia (USP <51>); assay type: cell-based; conditions: American pharmacopoeia criteria
Protocol: as §1, §2

[5] = stability studies conducted for 36 months
Protocol: as §2

CCCCCCCCCCCC[N+](C)(C)CCOc1ccccc1 [Domiphen bromide]
preservative system efficacy test (PET) results [1]: good

CC(C)(C(=O)O)c1ccc(C(O)CCCN2CCC(C(O)(c3ccccc3)c3ccccc3)CC2)cc1.Cl (stereo not drawn) [Fexofenadine, 4-[1-hydroxy-4-[4-(hydroxydiphenylmethyl)-1-piperidinyl]-butyl]-α,α-dimethyl benzeneacetic acid hydrochloride]
fexofenadine in the form of zwitterion [2]: 97%

C/C=C/C=C/C(=O)[O-].[K+] [Potassium sorbate]
point of failure (concentration) [3]: 0.3% | point of failure (concentration) [4]: 0.10 | concentration considered effective as a preservative ([1]; criteria of both pharmacopoeias, fexofenadine suspension with EDTA): 0.4% | effective as preservative until (stability time) [5]: 36 months

O=C([O-])c1ccccc1.[Na+] [Sodium Benzoate, Sodium benzoate]
preservative system efficacy test (PET) results [1]: satisfactory
